This is an account of results in PubChem BioAssay AID504778 (National Center for Advancing Translational Sciences (NCATS), 2011).

This data set has as its system Caco-2 monolayer, B->A permeability, LC-MS/MS. In words: Enhancers of SMN2 Splice Variant Expression: Caco-2 Permeability Profiling. The settings on record: stronger effect = higher value. The text has this: Spinal muscular atrophy (SMA) is caused by insufficient levels of the survival motor neuron protein SMN. The SMN locus on chromosome 5q13 contains two inverted copies of SMN called SMN1 and SMN2 which are 99% identical at the amino acid level. SMN1 is a fully functional protein and SMN2 skips exon 7 90% of the time. Skipping of exon 7 produces non-functional protein product. 10% of the SMN2 protein includes exon 7 and is fully functional. In the SMA disease state, mutations in the SMN1 locus are the cause of the disease state. Because only 10% of SMN2 is of the fully functional form, it is not sufficient to overcome the deficiency produced by the loss of the SMN1 product. A therapy that either increase the amount of SMN2 product made or to increase the inclusion of exon 7 has been proposed for the treatment of SMA. After screening and medicinal chemistry efforts a probe was identified and is further characterized in this in vitro ADME assay. This Caco-2 permeability assay predicts the in vivo absorption of the lead across the intestinal lining by using a Caco-2 cell line and measuring the lead's rate of transport […]. […] NIH Chemical Genomics Center [NCGC] NIH Molecular Libraries Probe Production centers Network [MLPCN] […]
1. […] The T0, LY and T90, LY plates are read by FlexStation 3 at excitation of 485 nm and emission of 535 nm to determine LY permeability. […]

SMILES strings stand for the structures.

`O=C(O)C1CCN(c2nc(-c3ccc(Br)cc3)cs2)CC1`: the Papp B->A is 12 10^-6 cm/s.
